{"source": "patent US20190369111A1", "about": "“MOLECULAR KINETICS EVALUATION METHOD AND SCREENING METHOD” (Tokyo University of Science Foundation, priority 2016, published 2019)", "molecular_target": "T1, wild-type K-Ras protein (Homo sapiens, UniProt P01116)", "T1 construct": "expressed in transfected cells; host or cells: HeLa cells, transient transfection", "T1 sequence (P01116 1-188 isoform P01116-2)": "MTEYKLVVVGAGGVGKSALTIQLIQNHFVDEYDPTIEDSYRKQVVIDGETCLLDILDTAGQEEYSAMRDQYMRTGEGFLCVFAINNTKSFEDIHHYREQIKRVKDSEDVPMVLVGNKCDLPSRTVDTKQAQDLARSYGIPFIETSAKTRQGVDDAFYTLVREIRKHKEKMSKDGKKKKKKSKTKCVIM", "experiment": "Degradation (knockdown) of forcibly expressed wild-type K-Ras protein in HeLa cells, Western blot analysis", "format": "cell-based", "protocol": "A plasmid expressing the wild-type K-Ras protein (K-Ras-WT) was prepared, as in Reference Example 1.\nAs in Reference Example 1, the plasmid was introduced into HeLa cells to transiently overexpress the wild-type K-Ras protein (specifically, a fusion protein of the wild-type K-Ras protein and GFP through a HA tag) or a DsRed protein for comparison in the cells. HeLa cells into which the plasmid had been introduced were seeded in a 24-well plate at a cell density of 4×10^4 cells/well, and then cultured under conditions of 37° C. and 5 vol % CO2 for 40 hours.\nCulture was performed for 40 hours after introduction of the plasmid, and then TUS-007 was added to HeLa cells as follows. As a medium, a serum-free medium (37° C.) in which 1 mass % L-glutamine solution (Sigma-Aldrich) was added to D-MEM (high D-glucose, phenol red, sodium pyruvate (Wako Pure Chemical Industries, Ltd.)) was used. […]\nAfter electrophoresis, proteins were transferred to a PVDF membrane (Immobion™-P, Millipore) under conditions of 100 V and 120 minutes using a tank-type blotting device and a transfer buffer (25 mM Tris-HCl, 195 mM glycine, 0.01% SDS, 15% methanol). […] Subsequently, the membrane was treated with a chemiluminescence reagent Immobilon™ Western (Millipore), and then chemiluminescence was detected using a lumino image analyzer LAS-3000 (FUJIFILM Corporation). […]"}
{"smiles": "CC[C@@H](C)[C@H](NC(=O)CCCCCCNC(=O)[C@H](CC(C)C)NC(=O)CNC(=O)c1cc(Cl)ccc1Cl)C(=O)Nc1ccc2[nH]c(Cc3c[nH]c4ccccc34)nc2c1", "note": "[TUS-007]", "values": [{"measurement": "amount of wild-type K-Ras protein", "setting": "24 hours after addition, relative to control (DMSO)", "value": "the amount of the wild-type K-Ras protein was reduced"}, {"measurement": "amount of wild-type K-Ras protein when MLN2238 is added together", "setting": "both TUS-007 and MLN2238 added", "value": "the amount of the wild-type K-Ras protein was increased as compared with the amount of the control (DMSO)"}]}
